Experimental data published in patent US20240000949A1, “Nucleic Acid-Derivatized Therapeutics” (The University of Chicago, priority 2020, published 2024).
{Alexa647} = Alexa Fluor 647 dye

B1: dsDNA: 38-mer double stranded DNA, SEQ ID NO: 40 and SEQ ID NO: 41, Alexa 647 labelled; targeting module without drug (nucleic acid)
chain 1: ATCAACACTGCACACCAGACAGCAAGATCCTATATATA
chain 2: TATATATAGGATCTTGCTGTCTGGTGTGCAGTGTTGAT
modifications: listed as DNA, chemistry not fully specified
notes: targeting module without drug

Assays:
[1] = system: Lactate dehydrogenase (LDH) in BMDMs; experiment: LDH activity and lactate in BMDMs under hypoxia; type: cell-based, mouse; settings: hypoxic (1% 02), 24h, vs vehicle
Experimental: FIG. 82. […] Bone marrow-derived macrophages (BMDMs) were cultured under normoxic (n) or hypoxic (h, 1% 02) conditions for 24h in the presence of vehicle (veh), GNE, or GNE-DNA.
FIG. 83. […] Bone marrow-derived macrophages (BMDMs) were cultured under normoxic (n) or hypoxic (h, 1% 02) conditions for 24h in the presence of vehicle (veh), GNE, or GNE-DNA. Intracellular lactate levels in BMDMs are decreased by GNE or GNE-DNA under hypoxic conditions to levels compared to vehicle.
BMDMs were differentiated from bone marrow stem cells with L-cell conditioned media for six days as previously described (Kratz et al.).

E0771 tumors = experiment: E0771 tumor growth after i.v. delivery (incl. antibody depletion, anti-PD-L1 and CTX combinations); type: in vivo, mouse; settings: E64-DNA 25 μg i.v., CTX 50 mg/kg
Experimental: E64-DNA or DNA (25 μg) was intravenously delivered (i.v.; retro-orbital) into E0771 tumor-bearing mice. E0771 tumor growth over 5 days after a single injection is shown. n=8/group. Statistical significance was calculated via two-tailed Student's t-test (p<0.05 values are provided); error bars indicate the mean of independent experiments±s.e.m. ns, not significant. All measurements (n) are biological replicates.
Experimental design for depleting TAMs with α-CSF1R antibody (top). Effect of IgG or α-CSF1R (300 μg) on E0771 tumor growth (bottom, left) and CD8^+ effector T cells in tumors (bottom, right) in mice treated with E64-DNA (n=8/group) or DNA (n=6/group). E64-DNA or DNA (25 μg) was intravenously delivered (i.v.; retro-orbital) into E0771 tumor-bearing mice.
Effects of α-CD8, α-PD-L1, or IgG antibodies on E0771 tumor growth in mice treated with E64-DNA or DNA. […]
E64-DNA or DNA (25 μg) was intravenously delivered (i.v.; retro-orbital) into E0771 tumor-bearing mice. […] Statistical significance was calculated via two-tailed Student's t-test (p<0.05 values are provided); error bars indicate the mean of independent experiments±s.e.m. ns, not significant. […]

TAMs / OT-1 CD8+ T cells = experiment: MHCI-restricted antigen cross-presentation by TAMs (OVA-OT-1 CD8+ T cell system); type: cell-based, mouse; settings: 100 nM, alone
Experimental: OT-1 CD8^+ T-cell activation (FIG. 53B) and proliferation (FIG. 53C) after 72h of co-culture with TAMs. n=3/group. Vehicle (Veh)=phosphate-buffered saline. Statistical significance was calculated via two-tailed Student's t-test (p<0.05 values are provided); error bars indicate the mean of independent experiments±s.e.m. ns; not significant. TAMs were isolated from E0771 tumors. All measurements (n) are biological replicates.
CD3/CD28 antibodies were included as a positive control for T cell activation. n=3/group. Statistical significance was calculated via two-tailed Student's t-test (p<0.05 values are provided); error bars indicate the mean of independent experiments±s.e.m. All measurements (n) are biological replicates. […]
T cell activation—CD8^+ or CD4^+ T cells were treated with BD GolgiPlug for the final 6 h of coculture with macrophages to allow intracellular IFNγ accumulation. […] The percent of IFNγ^+/CD44^+CD8^+ T cells was quantified by flow cytometry. In some cases, CD8^+ T cell IFNγ production in the culture medium at 72h was quantified using a mouse IFN-γ ELISA kit (Invitrogen).
T cell proliferation—Isolated CD4^+ or CD8^+ T cells were labeled with 5 μM 5,6-carboxyfluorescein diacetate succinimidyl ester (CF SE, Invitrogen) according to the manufacturer's instructions. The number of proliferating cells (CF SE-diluted) was quantified using CountBright™ beads (Invitrogen). […]

tumor growth = settings: 1 mg, daily; cited from earlier work
[2] = system: TAMs isolated from E0771 tumors; experiment: DQ-OVA degradation by TAMs treated ex vivo; type: cell-based, mouse; settings: 100 nM, 2h ex vivo
Experimental: FIGS. 46A-46B. A lysosome-targeted DNA nanodevice (E64-DNA) promotes antigen cross-presentation by TAMs. FIG. 43A, Representative images (left) and Pearson correlation (right) of co-localization of TMR-Dextran labeled lysosomes (green) with E64-DNA (red). Pearson correlation with and without a 20-pixel shift (˜lysosome diameter) of the green signal. n=15 cells/group. scale bar=[…]. FIG. 43B, DQ-OVA degradation by TAMs treated with E64-DNA, DNA, or E64 (100 nM) for 2h. n=3/group. Statistical significance was calculated via two-tailed Student's t-test (p<0.05 values are provided); error bars indicate the mean of independent experiments±s.e.m. ns; not significant. TAMs were isolated from E0771 tumors. All measurements (n) are biological replicates.
Analysis of lysosomal degradation by DQ-OVA. Lysosomal degradative capacity of macrophages was assessed by a DQ-OVA degradation assay (D-12053, Invitrogen®) according to the manufacturer's instruction. Briefly, 0.2 million cells were incubated with 10 μg/mL of DQ-OVA at room temperature for 15 min, washed, and incubated at 37° C. for another 15 min. DQ-OVA fluorescence was quantified by flow cytometry.

BMDMs = experiment: Uptake of fluorescently labelled nucleic acid scaffolds by BMDMs (flow cytometry); type: cell-based, mouse; settings: pulsed with 50 nM scaffold 30 min, chased 15 min
Excerpt: FIGS. 1A-1B. Uptake of various oligonucleotides by bone marrow-derived macrophages (BMDMs). FIG. 1A, Schematic of various fluorescently labelled nucleic acid structures used for uptake studies in BMDMs. Each nucleic acid scaffold is either a single stranded or double stranded 38 mer DNA (D) or RNA (R) sequence, or a DNA:RNA hybrid or complex. Each scaffold is labelled with an Alexa Fluor® 647N fluorophore on the 5′ end of one of the strands. From left to right, the constructions tested were dsDNA (SEQ ID NO: 40 and SEQ ID NO: 41 or SEQ ID NO: 42), ssDNA (SEQ ID NO: 41), dsRNA (SEQ ID NO: 43 and SEQ ID NO: 44), ssRNA (SEQ ID NO: 43), and ssDNA:ssRNA (SEQ ID NO: 45 and SEQ ID NO: 46). FIG. 1B, BMDMs were pulsed with 100 nM of each nucleic acid scaffold for 30 min. The cells were then washed and chased for 15 min after which were subjected to flow cytometry based quantification. Mean fluorescence intensity (A/IFI) of nucleic acid scaffold uptake by BMDMs is shown.
Various fluorescently labelled scaffolds were tested in a variety of nucleic acid configurations (Table 1).
BMDMs were pulsed with 50 nM of each nucleic acid scaffold for 30 min. The cells were then washed and chased for 15 min after which they were subjected to flow cytometry quantification. A nucleic acid scaffold was then selected for subsequent experiments. […]

M2 BMDMs = experiment: Uptake by M2 BMDMs in vitro (wt and scavenger receptor knockouts; nucleic acid variants); type: cell-based, mouse; settings: 30 min
Experimental: FIG. 48. A lysosome-targeted DNA nanodevice (E64-DNA) promotes antigen cross-presentation by TAMs. E64-DNA uptake by M2 BMDMs from wt, Scarb1−/−, Msr1−/−, or Cd36−/− mice. Uptake was quantified by flow cytometry; n=3/group. Statistical significance was calculated via two-tailed Student's t-test (p<0.05 values are provided); error bars indicate the mean of independent experiments±s.e.m. ns; not significant. TAMs were isolated from E0771 tumors. All measurements (n) are biological replicates.
FIGS. 49A-49B. DNA nanodevice uptake and stability. FIG. 49A, Schematic of various fluorescently labeled nucleic acid structures used for uptake studies in BMDMs. Each nucleic acid scaffold is either a single stranded or double stranded 38 mer DNA or RNA sequence. Each scaffold is labelled with an Alexa Fluor® 647 fluorophore on the 5′ end of one of the strands. FIG. 49B, Uptake of various types of nucleic acids by M2 BMDMs. n=3/group. Statistical significance was calculated via two-tailed Student's t-test (p<0.05 values are provided); error bars indicate the mean of independent experiments±s.e.m. ns; not significant. […]
E64-DNA uptake by M2 BMDMs in vitro—E64-DNA (100 nM) or other types of nucleic acids (D1-D2, D2, R1-R2, R2) was incubated with 0.2 million M2-activated BMDMs from wt, Scarb1−/−, Msr1−/−, or Cd36−/− mice for 30 min, washed with PBS, and uptake was assessed by flow cytometry.

[3] = system: adipose tissue macrophages; experiment: In vivo labeling by intraperitoneal dsDNA; set-up: species or system mouse; settings: 100 μg dsDNA intraperitoneally
Experimental: (§1) FIGS. 2A-2B. dsDNA preferentially targets macrophages in other tissues. FIG. 2A, Fluorescently labeled dsDNA (100 μg) was injected intratracheally into mice and cells were harvested 2 hr post injection with a bronchoalveolar lavage. Uptake by alveolar macrophages (AM, CD45^+CD11b^−CD11c^+) and alveolar neutrophils (AN, CD45^+CD11b^+Ly6G^+) was quantified by flow cytometry. FIG. 2B, Fluorescently labeled dsDNA (100 μg) was injected intraperitoneally into mice and visceral adipose tissue was harvested 4 hr post injection. Adipose tissue was digested to obtain the stromal vascular fraction. dsDNA uptake by cells in the stromal vascular fraction was quantified by flow cytometry. ATM=adipose tissue macrophage (CD45^+CD11b^+F4/80^+).
(§2) BMDMs were pulsed with 50 nM of each nucleic acid scaffold for 30 min. The cells were then washed and chased for 15 min after which they were subjected to flow cytometry quantification. A nucleic acid scaffold was then selected for subsequent experiments. To test the efficiency of macrophage labeling in vivo, 25 μg of fluorophore labeled dsDNA was injected intravenously into a mouse model of triple-negative breast cancer (TNBC).

alveolar macrophages = experiment: In vivo labeling by intratracheal dsDNA; set-up: species or system mouse; settings: 100 μg dsDNA intratracheally
Experimental: as §1, §2

[4] = system: tumor associated macrophages; experiment: In vivo macrophage labeling by i.v. fluorophore labeled dsDNA, TNBC model; settings: 25 μg dsDNA i.v., TNBC mouse model
Experimental: as §2

| Molecule | antigen cross-presentation by TAMs (TAMs / OT-1 CD8+ T cells) | DQ-OVA degradation by TAMs [2] | uptake of nucleic acid scaffold by BMDMs (BMDMs) | internalization of 38 nucleotide Alexa 647 scaffolds by M2 BMDMs (M2 BMDMs) | other results |
| --- | --- | --- | --- | --- | --- |
| O=C1N[C@](c2ccc(N3CCOCC3)cc2)(c2ccsc2)CC(O)=C1Sc1ccccc1Cl [GNE, (R)-GNE-140] | – | – | – | – | Lactate dehydrogenase (LDH) activity in BMDMs [1]: decreased; intracellular lactate levels in BMDMs [1]: decreased |
| O=P1(N(CCCl)CCCl)NCCCO1 (stereo not drawn) [CTX, cyclophosphamide] | – | – | – | – | sustained tumor regression in the E0771 model (E0771 tumors): could not be replicated |
| CC(C)C[C@H](NC(=O)[C@@H]1O[C@H]1C(=O)O)C(=O)NCCCCNC(=N)N [E64, reference compound] | did not affect cross-presentation | could not be reproduced | – | – | tumor growth, free E64 high doses (tumor growth): limited impact on tumor growth |
| ssDNA: single stranded 38 mer DNA, SEQ ID NO: 41, Alexa 647 labelled (TATATATAGGATCTTGCTGTCTGGTGTGCAGTGTTGAT; DNA, 5' {Alexa647}, backbone and methylation of C not given here) | – | – | maximal uptake | required a ssDNA or dsDNA scaffold | – |
| B1 | did not affect cross-presentation | could not be reproduced | maximal uptake | required a ssDNA or dsDNA scaffold | labeling of adipose tissue macrophages preferentially over other cell types [3]: 70%; labeling of alveolar macrophages preferentially over other cell types (alveolar macrophages): > 95%; labeling of tumor associated macrophages preferentially over any other cell type in the tumor microenvironment [4]: > 90% |
